Experimental data as given in PMC10313808, “Lipoxygenase inhibitory synthetic derivatives of methyl gallate regulate gene expressions of COX-2 and cytokines to reduce animal model arthritis” (Scientific Reports, 2023).
Blank lines part the entries; values can stand above or below the compound they belong to.

Tests used:
[1] = test system: ankle joints, liver, spleen, and thymus; assay: FCA-induced arthritis: histological analysis; assay type: in vivo, Sprague–Dawley (SD) rats; conditions: FCA rats; for Histology of liver / Histology of spleen: dose not stated; for Histology of thymus: methyl gallate high dose
Procedure: The animals used for the FCA induced arthritis were euthanized at the end of the experiment and the ankle joints were separated from the hind paw and fixed in 10% buffered formalin. Similarly, liver, spleen, and thymus were also dissected carefully and immersed in fixative, and after 24 h each specimen were decalcified in 5% nitric acid, followed by embedding in paraffin wax and 4 µm thickness sections were prepared. These prepared sections were then mounted and stained with hematoxylin and[…] under brightfield compound binocular research microscope at 100X and 400X magnification and inflammation was graded.

[2] = FCA-induced arthritis: body weight measurement; assay type: in vivo, Sprague–Dawley (SD) rats; conditions: FCA rats
Procedure: (§1) Chronic inflammation induced by Freund's Complete Adjuvant contains a suspension of heat-killed Mycobacterium tuberculosis in the vehicle (Chondrex, Labex Corporation). 100 μL of FCA (10 mg/mL) was injected intradermally to the left-hand paw of SD rats[42]. […] Induction of inflammation became chronic by 9–12 days and then rats were divided into 7 groups having 6 rats in each group. Everything possible was done to minimize the suffering of experimental animals. Minimum number of rats only were drafted to generate reliable data. 42 rats were randomly allocated into seven groups (6 × 7).
(§2) Group I (n = 6) served as normal rats that received an equal volume of vehicle control. Group II (n = 6) was arthritic model control treated with vehicle only. Group III (n = 6) was arthritic control which received the diclofenac (10 mg.kg^–1). Groups IV (n = 6), V (n = 6), VI (n = 6) and VII (n = 6) were treated with a low and high dose of methyl gallate (20 mg.kg^–1, 40 mg.kg^–1) and MGSD 1 (1 mg.kg^–1, 10 mg.kg^–1). The drugs were orally administered through oral gavage daily in PBS vehicle for 28 days.
The bodyweight of the animals was measured every day after the commencement of the experiment till the end (28th day). The weight change was calculated using the formula: Weightchange%=Wt-Wo/[…], where Wt is the weight of the animal at time t
Wo is the weight of the animal on the initial day.

FCA-induced arthritis = assay: FCA-induced arthritis: hind paw volume; assay type: in vivo, Sprague–Dawley (SD) rats; conditions: for Percentage of inhibition (paw oedema) / Paw volume (mL) (mean ± SEM) 9th day / Paw volume (mL) (mean ± SEM) 18th day / Paw volume (mL) (mean ± SEM) 28th day / Paw volume (mL) (mean ± SEM) Initial day: FCA rats; for amount required relative to diclofenac for the same level of effect: in vivo FCA arthritis studies
Procedure: as §1, §2
By a plethysmometer the rat hind paw volume was measured from the initial day to final day (28th day) with successive intervals of 9 days, before and after FCA injection. The inhibition was calculated by the formula given below. Percentageinhibition=1-Meanchangesinpawvolumeoftreatedrat/Meanchangesinpawvolumeofuntreatedrat×100.

[3] = biological target: T1, Lipoxidase from Glycine max (15- LOX) (Glycine max, UniProt P08170); assay: In-vitro LOX enzyme inhibition assay (spectrophotometric, 234 nm); assay type: biochemical
T1 construct: purchased Sigma (Sigma-Aldrich, UK)
T1 sequence (P08170 1-839): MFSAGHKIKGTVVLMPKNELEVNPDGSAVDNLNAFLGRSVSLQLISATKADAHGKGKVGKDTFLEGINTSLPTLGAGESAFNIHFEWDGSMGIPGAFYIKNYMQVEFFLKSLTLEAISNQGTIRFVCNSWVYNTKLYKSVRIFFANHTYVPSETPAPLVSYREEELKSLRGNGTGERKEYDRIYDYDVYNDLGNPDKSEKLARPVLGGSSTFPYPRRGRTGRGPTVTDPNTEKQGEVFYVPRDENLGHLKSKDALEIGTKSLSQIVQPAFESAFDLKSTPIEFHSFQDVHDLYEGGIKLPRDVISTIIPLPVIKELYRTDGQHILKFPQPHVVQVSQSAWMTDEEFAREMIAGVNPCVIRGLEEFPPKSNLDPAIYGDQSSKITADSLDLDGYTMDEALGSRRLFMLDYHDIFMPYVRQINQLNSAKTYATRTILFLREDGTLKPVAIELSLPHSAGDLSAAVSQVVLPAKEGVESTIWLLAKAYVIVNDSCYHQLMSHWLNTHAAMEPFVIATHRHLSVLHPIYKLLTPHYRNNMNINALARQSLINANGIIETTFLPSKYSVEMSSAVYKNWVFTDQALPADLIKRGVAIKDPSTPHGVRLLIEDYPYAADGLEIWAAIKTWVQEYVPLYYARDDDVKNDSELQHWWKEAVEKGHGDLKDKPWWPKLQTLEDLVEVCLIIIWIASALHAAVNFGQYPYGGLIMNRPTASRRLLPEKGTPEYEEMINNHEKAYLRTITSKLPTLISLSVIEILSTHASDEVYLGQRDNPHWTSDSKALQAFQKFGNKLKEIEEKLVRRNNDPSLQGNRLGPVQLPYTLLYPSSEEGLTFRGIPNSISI
Procedure: The LOX inhibition assays were performed with MGSDs. The inhibitory activity was measured by a modified spectrophotometric method[16],[39]. The plant LOX pathway is in many respects equivalent to the ‘arachidonic acid cascades’ in animals. For this reason, the in vitro inhibition of LOX constitutes a good model for the screening of compounds with anti-inflammatory potential[40],[41]. LOX (Lipoxidase from Glycine max (15- LOX); EC 1.13.11.12) type I-B (Soybean), and linoleic acid were purchased from Sigma (Sigma-Aldrich, UK) and used without further purification. Enzyme solution of 1.03 µM was prepared in 0.2 mM borate buffer, pH 8.5. The substrate, linoleic acid solution of 0.3 mM was also prepared in the borate buffer at the same pH. […] The final concentration of MGSDs used for the analysis was 20 µM. The assay mixture was made of 50 µL of LOX, 50 µL of the test solution and 360 µL of the substrate. The final volume was made up to 2 mL with corresponding borate buffer quantity. The activity of LOX was measured on the formation of […], which was monitored at 234 nm on spectrophotometer, (HITACHI U 2900, Japan). The same procedure was repeated with triplicate for the confirmation of LOX inhibitory activity[16],[39].

- inhibition at 20 µM ([3]; 20 μM compound): 70 ± 3.45%
SMILES: O=C(O)COc1cc(C(=O)O)cc(OCC(=O)O)c1OCC(=O)O [MGSD 1, 2,2′,2″-((5-carboxybenzene-1,2,3-triyl)tris(oxy)) tri acetic acid]
- Histology of ankle joints ([1]; 10 mg.kg^-1): reduced oedema formation and neutrophil infiltration was found very low
- Histology of liver [1]: central sinusoid visible and hepatic array of cells normal
- Histology of spleen [1]: more efficient in controlling the inflammatory response than methyl gallate and diclofenac
- Histology of thymus [1]: more effective than the parent compound in reverting inflammation-based T-Cell proliferation
- Percentage of body weight (Mean ± SEM) 9th day ([2]; 1 mg.kg^−1 oral): 13.40 ± 0.26 %
- Percentage of body weight (Mean ± SEM) 18th day ([2]; 1 mg.kg^−1 oral): 25.99 ± 51 %
- Percentage of body weight (Mean ± SEM) 28th day ([2]; 1 mg.kg^−1 oral): 40.15 ± 0.00 %
- Percentage of body weight (Mean ± SEM) 9th day ([2]; 10 mg.kg^−1 oral): 14.47 ± 1.13 %
- Percentage of body weight (Mean ± SEM) 18th day ([2]; 10 mg.kg^−1 oral): 30.20 ± 1.57 %
- Percentage of body weight (Mean ± SEM) 28th day ([2]; 10 mg.kg^−1 oral): 38.44 ± 1.81 %
- Percentage of inhibition (paw oedema) (FCA-induced arthritis; 1 mg.kg^−1 oral): 68%
- Paw volume (mL) (mean ± SEM) 9th day (FCA-induced arthritis; 1 mg.kg^−1 oral): 0.97 ± 0.16 mL
- Paw volume (mL) (mean ± SEM) 18th day (FCA-induced arthritis; 1 mg.kg^−1 oral): 0.68 ± 0.22 mL
- Paw volume (mL) (mean ± SEM) 28th day (FCA-induced arthritis; 1 mg.kg^−1 oral): 0.59 ± 0.08 mL
- Paw volume (mL) (mean ± SEM) Initial day (FCA-induced arthritis; 1 mg.kg^−1 oral): 0.50 ± 05 mL
- Percentage of inhibition (paw oedema) (FCA-induced arthritis; 10 mg.kg^−1 oral): 70%
- Paw volume (mL) (mean ± SEM) 9th day (FCA-induced arthritis; 10 mg.kg^−1 oral): 1.05 ± 0.16 mL
- Paw volume (mL) (mean ± SEM) 18th day (FCA-induced arthritis; 10 mg.kg^−1 oral): 0.69 ± 0.22 mL
- Paw volume (mL) (mean ± SEM) 28th day (FCA-induced arthritis; 10 mg.kg^−1 oral): 0.56 ± 0.08 mL
- Paw volume (mL) (mean ± SEM) Initial day (FCA-induced arthritis; 10 mg.kg^−1 oral): 0.50 ± 0.05 mL
- amount required relative to diclofenac for the same level of effect (FCA-induced arthritis): approximately 1/12

SMILES: COC(=O)c1cc(O)c(O)c(O)c1 [Methyl gallate]
- Histology of ankle joints ([1]; 40 mg.kg^-1): synovial space with neutrophil infiltration, although much less than that of arthritic control
- Histology of liver [1]: hepatocyte arrays and central sinusoid area were seen to regain normalcy and a few necrotic cells were still visible
- Histology of spleen [1]: lesser degree of spleen reversion
- Histology of thymus [1]: effective in controlling inflammation-based T-Cell proliferation
- Percentage of body weight (Mean ± SEM) 9th day ([2]; 20 mg.kg^−1 oral): 9.43 ± 0.84%
- Percentage of body weight (Mean ± SEM) 18th day ([2]; 20 mg.kg^−1 oral): 23.61 ± 0.65%
- Percentage of body weight (Mean ± SEM) 28th day ([2]; 20 mg.kg^−1 oral): 34.17 ± 0.23 %
- Percentage of body weight (Mean ± SEM) 9th day ([2]; 40 mg.kg^−1 oral): 10.34 ± 0.52%
- Percentage of body weight (Mean ± SEM) 18th day ([2]; 40 mg.kg^−1 oral): 22.42 ± 0.28%
- Percentage of body weight (Mean ± SEM) 28th day ([2]; 40 mg.kg^−1 oral): 30.99 ± 0.23 %
- Percentage of inhibition (paw oedema) (FCA-induced arthritis; 20 mg.kg^−1 oral): 45%
- Paw volume (mL) (mean ± SEM) 9th day (FCA-induced arthritis; 20 mg.kg^−1 oral): 1.32 ± 0.16 mL
- Paw volume (mL) (mean ± SEM) 18th day (FCA-induced arthritis; 20 mg.kg^−1 oral): 1.24 ± 0.22 mL
- Paw volume (mL) (mean ± SEM) 28th day (FCA-induced arthritis; 20 mg.kg^−1 oral): 1.18 ± 0.08 mL
- Paw volume (mL) (mean ± SEM) Initial day (FCA-induced arthritis; 20 mg.kg^−1 oral): 0.56 ± 0.05 mL
- Percentage of inhibition (paw oedema) (FCA-induced arthritis; 40 mg.kg^−1 oral): 37%
- Paw volume (mL) (mean ± SEM) 9th day (FCA-induced arthritis; 40 mg.kg^−1 oral): 1.66 ± 0.18 mL
- Paw volume (mL) (mean ± SEM) 18th day (FCA-induced arthritis; 40 mg.kg^−1 oral): 1.56 ± 0.24 mL
- Paw volume (mL) (mean ± SEM) 28th day (FCA-induced arthritis; 40 mg.kg^−1 oral): 1.4 ± 0.09 mL
- Paw volume (mL) (mean ± SEM) Initial day (FCA-induced arthritis; 40 mg.kg^−1 oral): 0.50 ± 0.05 mL
- Percentage of inhibition (paw oedema) (FCA-induced arthritis; 40 mg.kg^−1 oral, listed as methyl gallate): 35–45%
- amount required relative to diclofenac for the same level of effect (FCA-induced arthritis): approximately five times of diclofenac
- inhibition at 200 µM ([3]; 0.2 mM compound): 61 ± 1.35%
